Results taken from patent US20090048340A1, “GROWTH HORMONE SECRETION REGULATOR” (AJINOMOTO CO., INC., priority 2006, published 2009).

What was measured:
growth hormone secretion [1] = experiment: Growth hormone secretion regulating function, intravenous administration of amino acid solutions; assay type: in vivo, shiba-goat (capra hircus); settings: aspartic acid 0.75 mmol/kg, valine 1.0 mmol/kg, blood 6 h before to 12 h after administration, n=3
Protocol: The growth hormone secretion regulating function of amino acids to be used in the present invention was evaluated by investigating changes in growth hormone secretion caused by intravenous administration of amino acid solutions. The details are as follows.
Special grade aspartic acid (Ajinomoto Co., Inc.) and valine (Ajinomoto Co., Inc.) were used as L-type amino acid samples. The amino acids were dissolved in purified water or an aqueous solution of 5% carboxymethylcellulose and administered as aqueous solutions (pH 7.0 to 8.0).
Two- to four-year-old mature castrated male and female shiba-goats (25 to 35 kg), purchased from the farm of Tokyo University, were domesticated for about one week. Aspartic acid (0.75 mmol/kg), valine (1.0 mmol/kg), and a mixture thereof, prepared in the same way as above, were administered intravenously via a cannula placed in the jugular vein, and blood was collected continuously during a period between 6 hours before and 12 hours after administration every 15 minutes via the cannula placed in the jugular vein, followed by investigation of changes in growth hormone secretion (n=3). The concentrations of the growth hormone in blood were measured by radioimmunoassay based on a double antibody method.
The growth hormone and antibody used in the radioimmunoassay were purchased from National institute of Diabetes and Digestive and Kidney Diseases. The other procedures were performed based on a reference (Hashizume T et al., Animal Science Technology 62: 343-350). The minimum measured concentration was 1 ng/ml, while the maximum measured concentration was 512 ng/ml. The intra-assay variation and inter-assay variation were 11.6% and 12.3%, respectively.

growth hormone secretion [2] = experiment: Growth hormone secretion regulating function, oral administration of amino acid solutions; assay type: in vivo, shiba-goat (capra hircus); settings: sodium aspartate monohydrate 5 mmol/kg, valine 5 mmol/kg, blood 6 h before to 12 h after administration, n=3
Protocol: Two- to four-year-old mature castrated male and female shiba-goats (25 to 35 kg), purchased from the farm of Tokyo University, were domesticated for about one week. Sodium aspartate monohydrate (5 mmol/kg, 861 mg/kg), valine (5 mmol/kg, 586 mg/kg), and a mixture thereof, prepared in the same way as Example 1, were administered orally to the shiba-goats, and blood was collected continuously during a period between 6 hours before and 12 hours after administration every 15 minutes via a cannula placed in the jugular vein, followed by investigation of changes in growth hormone secretion (n=3). The concentrations of the growth hormone in blood were measured by immunoassay in which europium was used.
The growth hormone and antibody used in the immunoassay were purchased from National institute of Diabetes and Digestive and Kidney Diseases. The other procedures were performed based on a reference (Sugino T et al., Biochemical and biophysical research communications 295: 255-60). The minimum measured concentration was 2 ng/ml, while the maximum measured concentration was 126 ng/ml. The intra-assay variation and inter-assay variation were 11.3% and 8.6%, respectively.

CC(C)[C@H](N)C(=O)O [valine]
no changes: amount of the growth hormone secreted in a pulse-like manner (growth hormone secretion [1]) | secretion patterns of the growth hormone secreted in a pulse-like manner at a certain frequency (growth hormone secretion [1]) | amount of the growth hormone secreted in a pulse-like manner (growth hormone secretion [2]) | secretion patterns of the growth hormone secreted in a pulse-like manner at a certain frequency (growth hormone secretion [2])

N[C@@H](CC(=O)O)C(=O)O [aspartic acid]
no changes: amount of the growth hormone secreted in a pulse-like manner (growth hormone secretion [1]) | secretion patterns of the growth hormone secreted in a pulse-like manner at a certain frequency (growth hormone secretion [1]) | amount of the growth hormone secreted in a pulse-like manner (growth hormone secretion [2]) | secretion patterns of the growth hormone secreted in a pulse-like manner at a certain frequency (growth hormone secretion [2])
